In patent US20080096848A1, “Substituted N-Aryl-9-Oxo-9H-Fluorene-1-Carboxamides and Analogs as Activators of Caspases and Inducers of Apoptosis” (CYTOVIA INC., priority 2004, published 2008):
Like-named read-outs stand apart in the source and are kept apart here.

System: T-47D
Experiment: Caspase cascade activation assay (Ac-DEVD-R110 fluorogenic substrate) in T-47D cells
Format: cell-based, Human
Conditions: 24 h incubation; for Caspase activity (Ratio): ratio of net RFU (T=3 h) of test compound to control, 0.16 to 10 μM final; for EC50: sigmoidal dose-response, read-out: Caspase potency EC50
Experimental: Human breast cancer cell lines T-47D was grown according to media component mixtures designated by American Type Culture Collection+10% FCS (Invitrogen Corporation), in a 5% CO2-95% humidity incubator at 37° C. T-47D and ZR-75-1 cells were maintained at a cell density between 30 and 80% confluency and for HL-60 at a cell density of 0.1 to 0.6×10^6 cells/mL. Cells were harvested at 600×g and resuspended at 0.65×10^6 cells/mL into appropriate media+10% FCS. An aliquot of 45 μL of cells was added to a well of a 96-well microtiter plate containing 5 μL of a 10% DMSO in RPMI-1640 media solution containing 1.6 to 100 μM of N-(2-methylphenyl)-9-oxo-9H-fluorene-1-carboxamide or other test compound (0.16 to 10 μM final). An aliquot of 45 μL of cells was added to a well of a 96-well microtiter plate containing 5 μL of a 10% DMSO in RPMI-1640 media solution without test compound as the control sample. The samples were mixed by agitation and then incubated at 37° C. for 24 h in a 5% CO2-95% humidity incubator. After incubation, the samples were removed from the incubator and 50 μL of a solution containing 20 μM of N—(Ac-DEVD)-N′-ethoxycarbonyl-R110 fluorogenic substrate (SEQ ID NO:1) (Cytovia, Inc.; U.S. Pat. No. 6,335,429), 20% sucrose (Sigma), 20 mM DTT (Sigma), 200 mM NaCl (Sigma), 40 mM Na PIPES buffer pH 7.2 (Sigma), and 500 μg/mL lysolecithin (Calbiochem) was added. The samples were mixed by agitation and incubated at room temperature. Using a fluorescent plate reader (Model 1420 Wallac Instruments), an initial reading (T=0) was made about 1-2 min after addition of the substrate solution, employing excitation at 485 nm and emission at 530 nm, to determine the background fluorescence of the control sample. After about 3 h of incubation, the samples were read for fluorescence as above (T=3 h).
The Relative Fluorescence Unit values (RFU) were used to calculate the sample readings as follows: RFU(T=3h)−Control RFU(T=0)=Net RFU(T=3h)
The activity of caspase cascade activation was determined by the ratio of the net RFU value for N-(2-methylphenyl)-9-oxo-9H-fluorene-1-carboxamide and other test compounds to that of control samples. The EC50 (nM) was determined by a sigmoidal dose-response calculation (Prism 2.0, GraphPad Software Inc.).

SMILES | EC50 (Homo sapiens, T47D, 24 h) [µM] | EC50 [µM] | EC50 (Hydrochloride) [µM] | Caspase activity (Ratio)
O=C(Nc1ccccc1-n1cccn1)c1cccc2sc3c(c12)C(=O)CC=C3 [Example 34, 9-Oxo-N-(2-(1H-pyrazol-1-yl)phenyl)-dibenzothiophene-1-carboxamide] | > 10 |  |  | 1.2
Nc1ccccc1NC(=O)c1cccc2c1C(=O)c1ccccc1-2 [Example 26, N-(2-Amino-phenyl)-9-oxo-9H-fluorene-1-carboxamide] | > 10 |  |  | 1.2
O=C(Nc1ccccc1-c1ccccc1)c1cccc2c1C(=O)c1ccccc1-2 [N-(2-Phenylphenyl)-9-oxo-9H-fluorene-1-carboxamide] | 1.5 |  |  | 8.1
N#Cc1ccccc1NC(=O)c1cccc2c1C(=O)c1ccccc1-2 [N-(2-Cyanophenyl)-9-oxo-9H-fluorene-1-carboxamide] | 2 |  |  | 2.3
O=C(Nc1ccccc1O)c1cccc2c1C(=O)c1ccccc1-2 [Example 35, N-(2-Hydroxy-phenyl)-9-oxo-9H-fluorene-1-carboxamide] | > 10 |  |  | 1.3
O=C(Nc1ccccc1[N+](=O)[O-])c1cccc2c1C(=O)c1ccccc1-2 [Example 25, N-(2-Nitrophenyl)-9-oxo-9H-fluorene-1-carboxamide] | 2.51 |  |  | 2.2
O=C(Nc1ccccc1N1CCOCC1)c1cccc2c1C(=O)c1ccccc1-2 [Example 1, N-(2-Morpholinophenyl)-9-oxo-9H-fluorene-1-carboxamide] | 5.67 |  |  | 3.1
O=C(Nc1ccccc1-n1cccn1)c1cccc2c3c([nH]c12)CCCC3 [Example 16, N-(2-(1H-pyrazol-1-yl)phenyl)-6,7,8,9-tetrahydro-5H-carbazole-1-carboxamide] | > 10 |  |  | 0.8
Cc1cccc(C)c1NC(=O)c1cccc2c1C(=O)c1ccccc1-2 [Example 7, N-(2,6-Dimethylphenyl)-9-oxo-9H-fluorene-1-carboxamide] | > 10 |  |  | 1.4
O=C(Nc1ccccc1-n1cccc1)c1cccc2c1C(=O)c1ccccc1-2 [Example 2, N-(2-(1H-Pyrrolo-1-yl)-phenyl)-9-oxo-9H-fluorene-1-carboxamide] |  | 2.23 |  | 4.2
O=C(Nc1cccc2ccccc12)c1cccc2c1C(=O)c1ccccc1-2 [N-(1-Naphthalen-1-yl)-9-oxo-9H-fluorene-1-carboxamide] |  | 6 |  | 3.2
Cc1cccc(NC(=O)c2cccc3c2C(=O)c2ccccc2-3)c1 [N-(3-Methylphenyl)-9-oxo-9H-fluorene-1-carboxamide] | > 10 |  |  | 1.3
O=C(Nc1ccccc1Cl)c1cccc2c1C(=O)c1ccccc1-2 [N-(2-Cholorophenyl)-9-oxo-9H-fluorene-1-carboxamide] |  | 1.05 |  | 7.4
O=C(Nc1ccccc1)c1cccc2c1C(=O)c1ccccc1-2 [Example 6, 9-Oxo-N-phenyl-9H-fluorene-1-carboxamide] | > 10 |  |  | 1.9
O=C(Nc1ccccc1-n1cccn1)c1cccc2c1OCC2 [Example 19, N-(2-(1H-pyrazol-1-yl)phenyl)-2,3-dihydrobenzofuran-7-carboxamide] | > 10 |  |  | 0.9
CN(C)Cc1ccccc1NC(=O)c1cccc2c1C(=O)c1ccccc1-2.Cl [Example 24, N-(2-Dimethylaminomethyl-phenyl)-9-oxo-9H-fluorene-1-carboxamide Hydrochloride] |  |  | > 10 | 1.8
Cc1cccnc1NC(=O)c1cccc2c1C(=O)c1ccccc1-2 [Example 11, N-(3-Methylpyridin-2-yl)-9-Oxo-9H-fluorene-1-carboxamide] | > 10 |  |  | 1.2
O=C(Nc1ccccc1-n1cccn1)c1ccc([N+](=O)[O-])c2c1C(=O)c1cc([N+](=O)[O-])ccc1-2 [Example 31, 4,7-Dinitro-N-(2-(1H-pyrazol-1-yl)phenyl)-9-oxo-9H-fluorene-1-carboxamide] | 6.05 |  |  | 2.3
O=C(Nc1ccccc1CBr)c1cccc2c1C(=O)c1ccccc1-2 [Example 14, N-(2-Bromomethylphenyl)-9-oxo-9H-fluorene-1-carboxamide] | 2.88 |  |  | 5.7
Cc1ccccc1NC(=O)c1cccc2c1C(O)c1ccccc1-2 (stereo not drawn) [Example 36, 9-Hydroxy-N-(2-methylphenyl)-9H-fluorene-1-carboxamide] | 3.7 |  |  | 3.3
O=C(Nc1ccccc1-n1cccn1)c1cccc2oc3ccccc3c12 [Example 23, N-(2-(1H-pyrazol-1-yl)phenyl)-dibenzofuran-1-carboxamide] | > 10 |  |  | 1.1
O=C(Nc1ccccc1N1CCCCC1)c1cccc2c1C(=O)c1ccccc1-2 [Example 3, 9-Oxo-N-(2-(piperidin-1-yl)-phenyl)-9H-fluorene-1-carboxamide] | 1.92 |  |  | 7.4
O=C(Nc1ccccn1)c1cccc2c1C(=O)c1ccccc1-2 [Example 5, 9-Oxo-N-(pyridin-2-yl)-9H-fluorene-1-carboxamide] | > 10 |  |  | 1.2

Now from value to compound, other results behind:

EC50 (Homo sapiens, T47D, 24 h) [µM] | EC50 [µM] | EC50 (Hydrochloride) [µM] | SMILES | Caspase activity (Ratio)
> 10 |  |  | O=C(Nc1ccccc1-n1ccnc1)c1cccc2c1C(=O)c1ccccc1-2 [Example 4, N-(2-(1H-Imidazol-1-yl)-phenyl)-9-oxo-9H-fluorene-1-carboxamide] | 1.4
> 10 |  |  | CC1CCCCC1NC(=O)c1cccc2c1C(=O)c1ccccc1-2 (stereo not drawn) [Example 18, N-(2-Methylcyclohexyl)-9-oxo-9H-fluorene-1-carboxamide] | 1.8
> 10 |  |  | CN1CCN(Cc2ccccc2NC(=O)c2cccc3c2C(=O)c2ccccc2-3)CC1 [Example 22, N-(2-(4-Methylpiperazin-1-yl-methyl)phenyl)-9-oxo-9H-fluorene-1-carboxamide] | 1.0
> 10 |  |  | Cc1ccccc1N(C)C(=O)c1cccc2c1C(=O)c1ccccc1-2 [Example 17, N-Methyl-N-(2-methylphenyl)-9-oxo-9H-fluorene-1-carboxamide] | 1.4
3.52 |  |  | O=C(Nc1ccccc1Br)c1cccc2c1C(=O)c1ccccc1-2 [N-(2-Bromophenyl)-9-oxo-9H-fluorene-1-carboxamide] | 9.1
> 10 |  |  | O=C(Nc1ccccc1-c1nnn[nH]1)c1cccc2c1C(=O)c1ccccc1-2 [Example 8, N-(2-(1H-tetrazol-5-yl)phenyl)-9-oxo-9H-fluorene-1-carboxamide] | 1.1
> 10 |  |  | Cc1ccc(NC(=O)c2cccc3c2C(=O)c2ccccc2-3)cc1 [N-(4-Methylphenyl)-9-oxo-9H-fluorene-1-carboxamide] | 1.4
0.688 |  |  | O=C(Nc1ccccc1OC(F)F)c1cccc2c1C(=O)c1ccccc1-2 [N-(2-Difluoromethoxyphenyl)-9-oxo-9H-fluorene-1-carboxamide] | 5.9
0.881 |  |  | Nc1ccc2c(c1)C(=O)c1c(C(=O)Nc3ccccc3-n3cccn3)cccc1-2 [Example 30, 7-Amino-N-(2-(1H-pyrazol-1-yl)phenyl)-9-oxo-9H-fluorene-1-carboxamide] | 4.4
> 10 |  |  | COc1ccc(NC(=O)c2cccc3c2C(=O)c2ccccc2-3)cc1 [N-(4-Methoxyphenyl)-9-oxo-9H-fluorene-1-carboxamide] | 1.8
0.419 |  |  | COC(=O)c1ccccc1NC(=O)c1cccc2c1C(=O)c1ccccc1-2 [N-(2-(Methoxycarbonyl)phenyl)-9-oxo-9H-fluorene-1-carboxamide] | 7.1
> 10 |  |  | Cc1ccncc1NC(=O)c1cccc2c1C(=O)c1ccccc1-2 [Example 21, N-(4-Methylpyridin-3-yl)-9-oxo-9H-fluorene-1-carboxamide] | 0.8
2.07 |  |  | CCOc1ccccc1NC(=O)c1cccc2c1C(=O)c1ccccc1-2 [N-(2-Ethoxyphenyl)-9-oxo-9H-fluorene-1-carboxamide] | 8.2
